Converted amounts (≈) assume the structure as drawn. The source made the active and inactive calls. The rule behind the calls is not given here.
Tests used:
[1] = system: Biomphalaria glabrata; assay: Molluscicidal activity against Biomphalaria glabrata; assay type: functional
[2] = system: HeLa; assay: Cytotoxicity against human HeLa cells by MTT assay; assay type: functional, cell-based
[3] = system: BT-20; assay: Growth inhibition of human BT20 cells by MTT assay; assay type: functional, cell-based

`COc1cc2[nH]c3c(OC)c(OC)ccc3c(=O)c2c(OC)c1OC` [CUSCULINE] was tested, and the LC50 [1] was 20 µg/mL (≈ 57.9 µM), the IC50 [2] was 8.5 µg/mL (≈ 24.6 µM) and the “growth inhibition (GI)” value [3] was “Active”.

`COc1cc2[nH]c3c(OC)c(OC)ccc3c(=O)c2c(O)c1OC` [CUSPANINE] was tested, and the LC50 [1] was 5 µg/mL (≈ 15.1 µM), the IC50 [2] was 2.5 µg/mL (≈ 7.55 µM) and the “growth inhibition (GI)” value [3] was “Active”.
